We go through 71 compounds from PMC7822874, “Chemoprotective antimalarials identified through quantitative high-throughput screening of Plasmodium blood and liver stage parasites” (Scientific Reports, 2021).

One data set can be described thus: in vitro. The note with it: human, hepg2-a16-cd81egfp cells.
One may read the viability as a read-out of living cells in per cent, often relative to untreated cells. In the case of `C=C1C(=O)O[C@@H]2C[C@@H](C)[C@@H]3C=CC(=O)[C@@]3(C)[C@@H](OC(=O)CC(=O)O[C@H]3[C@@H]4C(=C)C(=O)O[C@@H]4C[C@@H](C)[C@@H]4C=CC(=O)[C@]43C)[C@H]12` [MLS000728515], the viability at 3 µM came to 16.4%. Turning to `Oc1c(Cl)cc(Cl)cc1CN1CCN(Cc2ccccc2)CC1` [MLS000106505], the viability at 3 µM came out at 92%.

The data set is the same for the next values; noted with them: human, hepg2-a16-cd81egfp cells, % viability.
Consider `Cc1cc(C)n(-c2nc(NC(C)(C)C)nc(NC(C)(C)C)n2)n1` [MLS000109787], for which the viability at 3 µM was 106%. The same measure, in the same setting: then `CC(C)CCN(CCC(C)C)CC(O)Cn1c2ccccc2c(=O)c2ccccc21` (centres unmarked) [MLS001030199], with 88.6%; and `Oc1cc(/C=C/c2c(F)cccc2Cl)nc2ccccc12` [MLS000862522], with 102%.

For the compound `COc1cc2nc(Nc3ccc(C)c(C)c3)nc(N)c2cc1OC` [MLS001199689], the viability at 3 µM was determined as 102%. Still for that read-out and setting: then `CCCC(=O)NC(c1ccc(OC)cc1)c1ccc2cccnc2c1O` (centres unmarked) [MLS000715379], with 59.7%.

`Cc1ccc(C(=O)N/N=C/c2ccc([N+](=O)[O-])s2)cc1` [MLS000519463]: the viability at 3 µM worked out at 95.4%. Same read-out and setting: for `COc1cc(Cl)c(NC2=CC(=O)C(=O)c3ccccc32)c(OC)c1` [MLS001360325] the value was 65.1%; for `COc1ccc(/C=N/Nc2cc(C)nc(-n3nc(C)cc3C)n2)c(OC)c1` [MLS000589396], 91%; for `FC(F)(F)c1cccc(Nc2nc3nonc3nc2Nc2ccc(Cl)cc2)c1` [NCGC00100377], 47.1%.

`Cc1nn2c(c1-c1ccccc1-c1ccccc1)N(CCC(C)C)CCC2` [NCGC00420437]: the viability at 3 µM worked out at 15.3%.

Regarding `c1ccc2sc(Sc3ncnc4sccc34)nc2c1` [MLS000334432], the viability at 3 µM is 96.9%. On to `O=C(c1cc(C(=O)NCCc2ccccc2)c(=O)n(CCc2ccccc2)c1)c1cc(Cl)ccc1O` [MLS000402354], for which the viability at 3 µM came to 100%. The same measure, in the same setting: for `O=C(NC(c1ccccc1)c1cc(Cl)c2cccnc2c1O)c1cccnc1` (centres unmarked) [MLS000573359] the value was 69.7%. The same measure, in the same setting: for `COc1ccc2ccc(O)c(CN3CC=C(c4ccccc4)CC3)c2c1` [MLS000760157] the value was 97.2%; for `CCCN(C(=O)C(=O)Nc1ccc2nc3n(c(=O)c2c1)CCCCC3)c1ccc(OCC)cc1` [NCGC00114456], 93.7%.

With `O=C(NC1=C(Nc2ccc(F)cc2)C(=O)c2ccccc2C1=O)c1ccc(Cl)cc1` [MLS000375026], the viability at 3 µM amounted to 97%. Same read-out and setting: for `CCN(CC)CCCN(c1ccccc1)C1Cc2ccccc2C1` [NCGC00167576] the value was 99.6%.

For `COC(=O)C1=CN(Cc2ccc(OC)cc2)C=C(C(=O)OC)C1c1cc(OC)c(OC)c(OC)c1` [MLS001197127], the viability at 3 µM came out at 105%.

As to `O=C(Nc1cccnc1)c1cn(-c2ccccc2)nc1-c1cccs1` [MLS000081870], the viability at 3 µM turned out to be 100%. Still for that read-out and setting: for `Cc1ccc(Cl)cc1NC(=O)c1cc2ccccc2cc1O` [MLS000738149] the value was 74%; for `N#Cc1nc(Nc2cc(F)cc(F)c2)c2ncn(CC(F)F)c2n1` [MLS002471784], 90%; for `Nc1nonc1-n1nnc(C(=O)N/N=C/c2ccc(Br)cc2)c1-c1ccc2c(c1)OCO2` [MLS001142619], 89.5%. Regarding `COc1cccc2sc(N3CCN(C(=O)c4ccc([N+](=O)[O-])o4)CC3)nc12` [MLS001234267], the viability at 3 µM amounted to 93.6%. Same read-out and setting: for `CC[C@@H](C(=O)[C@@H](C)[C@@H](O)[C@H](C)CCc1ccc(C)c(O)c1C(=O)O)[C@H]1O[C@](CC)([C@H]2CC[C@](O)(CC)[C@H](C)O2)C[C@@H]1C` [NCGC00095029] the value was 27.3%. Still for that read-out and setting: then `CCOc1ccc(C(=O)Nc2ccc(-c3nc4ccccc4[nH]3)cc2)cc1[N+](=O)[O-]` [MLS000577721], with 101%. Still for that read-out and setting: for `CC1=C[C@@H](CNCc2cccnc2)[C@H](C(C)C)C[C@H]1Cc1nnc(-c2ccc([N+](=O)[O-])cc2)o1` [NCGC00394797] the value was 91.7%; for `CCOC(=O)c1c(CN(C)C)oc2cc(CN(C)C)c(O)c(CSc3ccccc3)c12` [MLS000038262], 104%; for `CCOc1ccc(C(C)NC(S)=NC2CCCCC2)cc1OCC` (centres unmarked) [MLS001007596], 95.1%. Turning to `CCN1CCN(Cc2ccc(NC(=O)c3ccc(C)c(NC(=O)c4cc(-c5ccc(Br)cc5)[nH]n4)c3)cc2C(F)(F)F)CC1` [MLS000911560], the viability at 3 µM was 99%. On to `CCCC(C)C(=O)Nc1ncc(S(=O)(=O)c2ccc([N+](=O)[O-])cc2)s1` (centres unmarked) [MLS001034555], for which the viability at 3 µM worked out at 94%.

For `CCc1c(C)c(C#N)c2nc3ccccc3n2c1NCC1CCCO1` (centres unmarked) [MLS000556827], the viability at 3 µM was 99.5%. Still for that read-out and setting: for `C=C[C@]1(C)C[C@@H](OC(=O)CSC(C)(C)CNC(=O)[C@H](N)C(C)C)[C@]2(C)[C@H](C)CC[C@]3(CCC(=O)[C@H]32)[C@@H](C)[C@@H]1O` [NCGC00167968] the value was 87.5%; for `O=C(Nc1nc(-c2ccccn2)cs1)c1cccc(S(=O)(=O)N2CCOCC2)c1` [MLS002161290], 62.2%. The same measure, in the same setting: for `Cc1nn2c(c1-c1ccccc1-c1ccccc1)N(CC1CC1)CCC2` [NCGC00420435] the value was 49.8%. Same read-out and setting: then `O=C(Nc1ncccc1O)c1ccc(S(=O)(=O)Nc2ccccc2)cc1` [MLS001099437], with 94.2%; and `O=S1(=O)N(CCN2CC=C(c3c[nH]c4cc(F)ccc34)CC2)c2cccc3c2N1CCC3` [NCGC00015600], with 76.3%; and `CCCCN(C(=O)c1cccc(S(=O)(=O)N(C)c2ccc(C)cc2)c1)c1c(N)n(CCCC)c(=O)[nH]c1=O` [MLS001128188], with 91.7%. Consider `CN(C)c1nc(-c2ccccn2)nnc1-c1ccccc1` [MLS000541553], for which the viability at 3 µM amounted to 86.2%. The same measure, in the same setting: for `CN([C@@H](Cc1ccc(OS(=O)(=O)c2cccc3cnccc23)cc1)C(=O)N1CCN(c2ccccc2)CC1)S(=O)(=O)c1cccc2cnccc12` [NCGC00162398] the value was 95.6%; for `CCN(CC)CCOC(=O)c1ccc(N/C=C(/C#N)c2nc(-c3cc4ccccc4oc3=O)cs2)cc1` [MLS001164950], 105%; for `C=C(C)COc1ccc(-c2n[nH]cc2-c2ccc(OC)c(OC)c2)c(O)c1` [MLS000084580], 42.4%. Still for that read-out and setting: then `c1ccc(Nc2cc3c(cn2)CN(Cc2ccc4[nH]ccc4c2)CCN3)cc1` [NCGC00411105], with 49.4%; and `Cc1cc(Nc2ccc(C(C)C)cc2)n2ncnc2n1` [MLS000116597], with 96.1%; and `CN1CCN(c2ccc(NC(=O)c3ccc(-c4cccc([N+](=O)[O-])c4)o3)cc2)CC1` [MLS000663772], with 107%.

In the case of `Clc1ccccc1C(c1ccccc1)(c1ccccc1)n1ccnc1` [NCGC00015251], the viability at 3 µM was 99.7%. Still for that read-out and setting: then `CCCCCCSc1ccc([C@H]2N[C@@](Cc3ccccc3)(C(=O)OC)[C@H]3C(=O)N(CC)C(=O)[C@@H]23)cc1` [MLS001362744], with 91.8%; and `COc1ccc(Nc2cc(C)nc(NCc3ccccc3)n2)cc1` [MLS000768693], with 83%. On to `O=C1C=C(c2cccc(CO)c2)C[C@@H](c2ccc(Cl)cc2)C1` [MLS002302575], for which the viability at 3 µM is 102%. On the same count and under the same terms, for `COc1cc(NC(=O)c2cc([N+](=O)[O-])ccc2NC(=O)CNC2CCCCC2C)cc(OC)c1` (centres unmarked) [MLS000950459] the value was 90.2%.

In the case of `N#Cc1c2c(c(NCc3ccco3)n3c1nc1ccccc13)CCC2` [MLS000109113], the viability at 3 µM turned out to be 97.7%.

As to `COc1ccccc1C1CC(c2ccccc2)=NN1C(=O)c1ccccc1` (centres unmarked) [MLS001197331], the viability at 3 µM was found to be 96.5%. Regarding `O=[N+]([O-])c1ccc(N2CCN(/C(S)=N/C3CCCCC3)CC2)cc1` [MLS000574247], the viability at 3 µM turned out to be 99.2%. Consider `Cc1cc(C)n(-c2nc(NC(C)C)nc(NC(C)C)n2)n1` [MLS000068521], for which the viability at 3 µM is 105%. For `COc1cc2nc(Nc3cccc(F)c3)nc(N)c2cc1OC` [NCGC00107351], the viability at 3 µM was 101%. On the same count and under the same terms, then `Cc1ccc(C)c2sc(N3CCN(C(=O)c4ccc([N+](=O)[O-])o4)CC3)nc12` [MLS001234268], with 94.7%; and `Cc1ccc(-c2cc3c(nn2)-c2ccccc2C3=O)cc1` [MLS000104226], with 76.2%. The same measure, in the same setting: for `CCOc1ccccc1NC(=O)Cn1c(-c2ccc(Cl)cc2)noc1=O` [MLS000529487] the value was 86.9%; for `COc1cc(NS(C)(=O)=O)ccc1Nc1c2ccccc2nc2ccccc12` [MLS002153376], 84.3%. Same read-out and setting: for `CCCCN(CC)CCNC(=O)c1cc2c(-c3ccc(Cl)cc3)nn(C)c2s1` [MLS001199341] the value was 90.6%; for `COc1ccccc1Nc1cnc2ccc(-c3ccc(OC)c(OC)c3)nn12` [NCGC00412573], 82.7%; for `O[C@H]1[C@H](NCC2CCCCC2)[C@H]2CO[C@H](O2)[C@@H]1N1CCC(Cc2ccccc2)CC1` [NCGC00394729], 99.2%. Regarding `N#Cc1ccc(NC(=O)Nc2ccc(Cl)cc2)cc1` [MLS000104525], the viability at 3 µM came to 77.8%. Still for that read-out and setting: for `O[C@@H]1[C@@H](O)C=C2CCN3Cc4cc5c(cc4[C@H]1C23)OCO5` (some centres unmarked) [MLS002153955] the value was 77.4%. The same measure, in the same setting: then `CNc1ccc2oc(C[C@@H]3OC4(CC[C@@H]3C)O[C@H]([C@@H](C)C(=O)c3ccc[nH]3)[C@H](C)C[C@H]4C)nc2c1C(=O)O` (some centres unmarked) [NCGC00161647], with 12.5%. Still for that read-out and setting: then `COc1ccc(OC)c(-n2c(-c3cccc(O)c3)n[nH]c2=S)c1` [MLS000089016], with 93.1%; and `COc1cc(O)c(C(CCN2CCCC(C)C2)c2ccc3c(c2)OCO3)c(OC)c1` (centres unmarked) [MLS000879506], with 97.8%. For the compound `CCOC(=O)c1c(CN2CCN(c3ccccc3)CC2)oc2cc(Br)c(O)cc12` [MLS001198242], the viability at 3 µM turned out to be 90.6%.

Consider `Cc1cc(Nc2ccc(Cl)cc2)nc(NCc2ccccc2)n1` [MLS000591025], for which the viability at 3 µM was 87.8%.

Regarding `COc1ccc(OC)c(-n2c(S)nnc2-c2ccc(O)cc2O)c1` [MLS000766628], the viability at 3 µM was found to be 104%.
